Assay results taken from patent publication US10676767B2, “Methods and compositions for making ephedrine and related alkaloid compounds” (priority 2015, dated 2020).

Assays:
[1] = test system: N-methyltransferase (NMT); assay: Standard enzyme assay with purified E. coli-produced NMT, N-methylated product measured by LC-MS; assay type: biochemical, Ephedra sinica; details: for acceptance as substrate for N-methylation by NMT (FIG. 3): 1 mM alkaloid substrate, 1 mM SAM, 100 μg/mL purified NMT, 4 h at 37° C., pH 8.5
Protocol: Open reading frames (ORFs) of N-methyltransferase (NMT) enzyme sequences (i.e. SEQ. ID NO: 1 and SEQ. ID NO: 2) were subcloned into Escherichia coli expression vector pET47b (Merck Millipore) in-frame with vector-encoded His-tag for downstream purification purposes. Constructs were transformed into E. coli strains ArcticExpress (Agilent Technologies) or Rosetta (Novagen). Recombinant His-tagged protein production was performed according to standard procedures (Farrow et al. 2013. J. Biol. Chem. 288: 28977) and manufacturer's instructions. Briefly, cultures of E. coli harboring pET47b were grown on an orbital shaker (200 rpm) to log phase in 1 L of LB medium containing gentamicin, streptomycin and kanamycin (Arctic Express) or chloramphenicol and kanamycin (Rosetta). Recombinant His-tagged protein production was initiated by the addition of 1 mM isopropyl β-D-1-thiogalactopyranoside (IPTG). To produce NMT, cultures were grown for 24 h at 15° C.
For purification, bacterial pellets obtained following induction/incubation were resuspened in 10 mL of resuspension buffer (50 mM Tris pH 8.5, 10% v/v glycerol, 1% w/v polyvinylpyrrolidone, 5 mM dithiothreitol) and lysed at 4° C. using a French pressure cell (1,000 psi). After centrifugation (10,000 g) to remove insoluble debris, the supernatant was incubated on ice with buffer-equilibrated Talon resin (Clontech) on an orbital shaker (60 rpm) for 60 minutes. The protein-charged resin was washed twice with 10 mL of cold resuspension buffer containing 2.5 mM imidazole, and proteins were eluted stepwise with increasing concentrations (10 to 200 mM) of imidazole in resuspension buffer. Total proteins from a 40 mM imidazole elution were desalted using a PD-10 column (EMD Millipore) and resuspension buffer free of imidazole. Recombinant proteins were analyzed by SDS-PAGE to assess yield and purity, and immunoblot analyses were conducted using α-His primary antibodies and goat-anti-mouse, horseradish peroxidase-conjugated secondary antibodies. Total protein concentration was determined using BCA Protein Assay kit (Thermo Scientific). Calculated protein concentrations were adjusted on gel densitometry. […] Specifically, standard enzyme reactions consisted of 50 mM Tris pH 8.5, 10 v/v glycerol, 1% w/v polyvinylpyrrolidone, 5 mM dithiothreitol, 1 mM alkaloid substrate, 1 mM SAM (S-adenosylmethionine) and 100 μg/mL purified NMT protein in a total of 100 μl reaction volume. Reactions were incubated for 4 h at 37° C., and stopped via 1) basification of the reaction mixture to pH 10-11, and 2) immediate addition of 1 mL ethyl acetate. Quenched reactions were vortexed and centrifuged (10,000 rpm) to separate organic and aqueous phases, and organic phase was carefully drawn off, placed in a new tube, reduced to dryness under vacuum, and resuspended in 500 μL of Solvent A (10 mM ammonium acetate pH 5.5, 5% v/v methanol). The resuspensions were centrifuged (10,000 rpm) prior to analysis by LC-MS to remove insoluble matter.
Ten μL sample was injected for LC-MS analysis using an Agilent 6410B triple quadrupole mass analyzer equipped with a 1200 Agilent HPCL system. Samples were fractionated using a previously described LC-ESI-MS/MS method [J. Chromatography B. 879:727, 2011] employing a Prodigy Phenyl-3 column (Phenomenex) which separated enantiomeric pairs (e.g. pseudoephedrine/ephedrine). Briefly, the HPLC gradient began as 95% Solvent A (Solvent B=100% methanol) for 1 minute at a flow rate of 0.2 ml/min, and decreased to 30% Solvent A/70% Solvent B over 19 minutes, then graded to 10% Solvent A/[…] over 0.5 minutes, then immediately returned to 100% Solvent A and equilibrated for 5 minutes. […] ESI and MS conditions were essentially the same as described [J. Chromatography B. 879:727, 2011].

plant-derived NMT = assay: NMT activity assay with Ephedra sinica plant tissue extract; assay type: biochemical; details: standard assay conditions, 4 hour assay, Ephedra sinica-derived protein
Protocol: For purification, bacterial pellets obtained following induction/incubation were resuspened in 10 mL of resuspension buffer (50 mM Tris pH 8.5, 10% v/v glycerol, 1% w/v polyvinylpyrrolidone, 5 mM dithiothreitol) and lysed at 4° C. using a French pressure cell (1,000 psi). After centrifugation (10,000 g) to remove insoluble debris, the supernatant was incubated on ice with buffer-equilibrated Talon resin (Clontech) on an orbital shaker (60 rpm) for 60 minutes. The protein-charged resin was washed twice with 10 mL of cold resuspension buffer containing 2.5 mM imidazole, and proteins were eluted stepwise with increasing concentrations (10 to 200 mM) of imidazole in resuspension buffer. Total proteins from a 40 mM imidazole elution were desalted using a PD-10 column (EMD Millipore) and resuspension buffer free of imidazole. Recombinant proteins were analyzed by SDS-PAGE to assess yield and purity, and immunoblot analyses were conducted using α-His primary antibodies and goat-anti-mouse, horseradish peroxidase-conjugated secondary antibodies. Total protein concentration was determined using BCA Protein Assay kit (Thermo Scientific). Calculated protein concentrations were adjusted on gel densitometry. Standard enzyme assays included approximately 100 μg/mL purified NMT protein, which was determined to be in the linear range of catalyst performance. […]

Compound | acceptance as substrate for N-methylation by NMT (FIG. 3) [1] | effectiveness as NMT substrate, absolute product quantification (FIG. 4) ([1]; standard assay conditions, product quantified with standard curves as ng alkaloid per μg protein per hour) | conversion by plant-derived extract (plant-derived NMT)
CNCC(O)c1ccc(O)cc1 (stereo not shown) [Synephrine, synephrine] | accepted as substrates | – | –
C[C@H](N)C(=O)c1ccccc1 [cathinone] | acting as substrate | – | –
CN[C@@H](C)[C@H](O)c1ccccc1 [ephedrine] | accepts | somewhat lower | –
CC(N)C(O)c1ccccc1 (stereo not shown) [norephedrine] | – | – | yielding ephedrine at comparable levels to E. coli-produced NMT
NCC(O)c1ccc(O)cc1 (stereo not shown) [octopamine] | accepted as substrates | – | –
CN[C@@H](C)[C@@H](O)c1ccccc1 [pseudoephedrine] | accepts | – | –
